Reference: patent US5554620A, “Substituted 6,11-ethano-6,11-dihydrobenzo[b] quinolizinium salts and compositions and methods of use thereof” (Sterling Winthrop Inc., priority 1994, dated 1996)

Each compound was assayed against PCP receptor (assay: [3H]TCP radioreceptor assay (binding to PCP recognition sites)). Settings: [3H]TCP approx. 1 nM, rat brain membranes; mean of at least two determinations.
Set-up: species or system rat (male Sprague-Dawley, whole brain)
Procedure: [^3 H]TCP Radioreceptor Assay
[^3 H]TCP binding to PCP recognition sites was performed as described by Vignon et al. Brain Research 1983, 280, 194-197. Male Sprague-Dawley rats were sacrificed by decapitation, and whole brains were homogenized in 10 volumes (wt/vol) of cold Tris-HCl buffer (50 mM, pH 7.7) using a Brinkmann Polytron (setting 6, 30 sec). The homogenate was centrifuged at 40,000×g for 10 min at 4° C. The supernatant was decanted, and the homogenization and centrifugation steps were repeated twice as described above. Following this, the pellet was resuspended in Tris-HCl (5 mM, pH 7.7) at a tissue concentration of 0.5-0.75 g/mL, and one mL aliquots were frozen at -70° C. until use. The binding characteristics for PCP recognition sites were not altered by the freezing of membrane suspensions.
On the day of the assay, membrane aliquots were thawed, resuspended in fresh 5 mM Tris-HCl buffer at a tissue concentration of 1 mg/mL, and stored on ice until use. Each assay tube contained 100 μl of [^3 H]TCP at a final concentration of approximately 1 nM, 100 μL of various concentrations of the compounds of interest, 500 μL of the tissue suspension and 300 μL of buffer to a final assay volume of 1 mL and a final protein concentration of 0.5 mg/tube. Non-specific binding was defined by addition of a final concentration of 100 μM PCP to blank tubes. All tubes were incubated at room temperature for 25 min before termination of the reaction by rapid filtration over Whatman GF/B glass fiber filters that had been presoaked in a solution of 0.5% polyethylenimine for at least 1 hr prior to use. Filters were washed with three 4 mL volumes of cold Tris buffer. Following addition of scintillation cocktail, the amount of bound radioactivity was determined by liquid scintillation spectrometry using a Beckman LS 5000TA liquid scintillation counter with an efficiency for tritium of approximately 55%. Inhibition constants (Ki values) were calculated using the EBDA/LIGAND program (McPherson, J. Pharmacol. Meth. 1985, 14, 213-228), purchased from ElsevierBiosoft, Inc. Results are reported as the Ki values (in nM) which are expressed as the mean of at least two separate determinations; or as a percent (%) inhibition of binding at 10 μM.
With “6,11-ethano-12,12-di(3-furyl)-10-stearyloxy-6,11-dihydrobenzo[b]quinolizinium chloride [Example 163]” the Ki was 7.54 nM.
`COc1cccc(C23c4ccccc4CC2C2c4ccccc4C3c3cccc[n+]32)c1` (single isomer, unassigned) [5(d), 6,11[2',3']-3'-(3-methoxyphenyl)-indanyl]16,11-dihydrobenzo[b]quinolizinium hexafluorophosphate] gave a Ki of 22 nM.
`CC12CC(c3ccccc3)(c3ccccc3)C(c3ccccc31)c1cccc[n+]12` (single isomer, unassigned) [20(h), 6,11-ethano-12,12-diphenyl-6-methyl-6,11-dihydrobenzo[b]quinolizinium chloride 1/2 hydrate] showed a Ki of 7.15 nM.
`CCOC1(c2ccoc2)C2c3ccccc3C(C1C)[n+]1ccccc12` (single isomer, unassigned) [65(c), 6,11-ethano-12-(3-furyl)-12-ethoxy-13-methyl-6,11-dihydrobenzo[b]quinolizinium hexafluorophosphate] gave a Ki of 2.8 nM.
For `c1ccc2c(c1)C1C3CCc4occc4C3(c3ccoc3)C2c2cccc[n+]21` (single isomer, unassigned) [69(c), 6,11[[5',4']-4'-(3-furyl)-4,5,6,7-tetrahydrobenzofuryl]-6,11-dihydrobenzo[b]quinolizinium perchlorate], the Ki was 0.9 nM.
`c1ccc2c(c1)CC1C2C2c3ccccc3C1[n+]1ccccc12` (single isomer, unassigned) [Example 2(a), 6,11[[2',3']-indanyl]6,11-dihydrobenzo[b]quinolizinium chloride] showed a Ki of 123 nM.
In the case of `c1ccc2c(c1)CC1C2C2c3ccccc3C1[n+]1ccccc12` (single isomer, unassigned) [Example 2(b), 6,11[[2',3']indanyl]6,11-dihydrobenzo[b]quinolizinium chloride], the Ki is reported as 262 nM.
In the case of `C#CC1(c2ccccc2)CC2c3ccccc3C1c1cccc[n+]12` (single isomer, unassigned) [Example 56, 6,11-ethano-12-phenyl-12-ethynyl-6,11-dihydrobenzo[b]quinolizinium hexafluorophosphate], the Ki is reported as 56 nM.
`Cc1ccc(S(=O)(=O)n2nccc2C2(c3ccoc3)CC3c4ccccc4C2c2cccc[n+]23)cc1` (single isomer, unassigned) [Example 184(c), 6,11-ethano-12-(3-furyl)-12-[1-(p-toluenesulfonyl)pyrazol-5-yl]-6,11-dihydrobenzo[b]quinolizinium bromide] showed a Ki of 12900 nM.
Compound `O=[N+]([O-])c1cccc2c1C1CC(c3ccoc3)(c3ccoc3)C2c2cccc[n+]21.[O-][Cl+3]([O-])([O-])[O-]` (single isomer, unassigned) [Example 201(c), 6,11-ethano-12,12-di(3-furyl)-7-nitro-6,11-dihydrobenzo[b]quinolizinium perchlorate] has a Ki of 3430 nM.
`O=[N+]([O-])c1cccc2c1C1c3cccc[n+]3C2CC1(c1ccoc1)c1ccoc1.[O-][Cl+3]([O-])([O-])[O-]` (single isomer, unassigned) [Example 201(d), 6,11-ethano-12,12-di(3-furyl)-10-nitro-6,11-dihydrobenzo[b]quinolizinium perchlorate] gave a Ki of 49.2 nM.
Work on `COc1ccc2c(c1)C1(c3ccccc3)C3c4ccccc4C(C1C2)[n+]1ccccc13` (stereo not shown) [3(d), 6,11[[2',3']-3'-phenyl-6'-methoxyindanyl]6,11-dihydrobenzo[b]quinoliziniumhexafluorophosphate] yielded a Ki of 14.1 nM.
For `COc1cccc2c1CC1C3c4ccccc4C(c4cccc[n+]43)C21c1ccccc1` (stereo not shown) [4(E), 6,11[[2',3']-3'-phenyl-7'-methoxy-indanyl]16,11-dihydrobenzo[b]quinolizinium hexafluoro-phosphate], the Ki was 5870 nM.
In the case of `COc1cccc(C23c4ccccc4CC2C2c4ccccc4C3c3cccc[n+]32)c1` (stereo not shown) [5(c), 6.11[[2',3']-3'-(3-methoxyphenyl)-indanyl]6,11-dihydrobenzo[b]quinolizinium hexafluorophosphate], the Ki is reported as 13.3 nM.
`c1ccc2c(c1)CC1C3c4ccccc4C(c4cccc[n+]43)C21c1ccoc1` (stereo not shown) [6(c), 6,11[[2',3']-3'-(3-furyl)-indanyl]6,11-dihydrobenzo[b]quinolizinium hexafluorophosphate] gave a Ki of 1.19 nM.
`c1ccc2c(c1)C1C3CCc4occc4C3(c3ccoc3)C2c2cccc[n+]21` (stereo not shown) [7(c), 6,11-[5',4"]-4'-(3-furyl)-4',5',6',7'-tetrahydrobenzofuryl]-6,11-dihydrobenzo[b]quinolizinium chloride] gave a Ki of 1.1 nM.
For `Cc1noc2c1CCC1C3c4ccccc4C(c4cccc[n+]43)C21c1ccoc1` (stereo not shown) [8(c), 6,11[[6',7']-7'-(3-furyl)-3'-methyl-4',5',6',7'-tetrahydrobenzisoxazol]6,11-dihydrobenzo[b]quinolizinium hexafluorophosphate], the Ki was 117 nM.
`CCOC12c3ccoc3CCC1C1c3ccccc3C2c2cccc[n+]21` (stereo not shown) [9(b), 6,11[[5',4!]-4'-ethoxy-4',5',6',7'-tetrahydrobenzofuryl]-6,11-dihydrobenzo[b]quinolizinium hexafluorophosphate] was tested, and the Ki was 5.9 nM.
`c1ccc2c(c1)C1C3CCc4occc4C3(c3cc4ccccc4o3)C2c2cccc[n+]21` (stereo not shown) [10(c-G), 6,11[[5',4']-4'-(2-benzofuryl)-4',5',6',7'-tetrahydrobenzofuryl]6,11-dihydrobenzo[b]quinolizinium hexafluorophosphate] gave a Ki of 4450 nM.
Compound `c1ccc2c(c1)C1C3CCc4occc4C3(c3cc4ccccc4o3)C2c2cccc[n+]21` (stereo not shown) [10(c-k), 6,11[[5',4']-4'-(2-benzofuryl)-4',5',6',7'-tetrahydro-benzofuryl]6,11-dihydrobenzo[b]quinolizinium hexafluorophosphate] has a Ki of 696 nM.
In the case of `CCOC1(c2ccoc2)CC2c3ccccc3C1c1cccc[n+]12` (stereo not shown) [11(d), 6,11-ethano-12-(3-furyl)-12-ethoxy-6,11-dihydrobenzo[b]quinolizinium hexafluorophosphate], the Ki is reported as 26 nM.
`CCOC1(c2cc(C)oc2C)CC2c3ccccc3C1c1cccc[n+]12` (stereo not shown) [12(b), 6,11-ethano-12-(2,5-dimethyl)-3-furyl]-12-ethoxy-6,11-dihydrobenzo[b]quinolizinium hexafluorophosphate] gave a Ki of 253 nM.
Compound `CCOC1(c2ccoc2)CC2(C)c3ccccc3C1c1cccc[n+]12` [13(b), 6,11-ethano-12-(3-furyl)-12-ethoxy-6-methyl-6,11-dihydrobenzo[b]quinolizinium monobenzoyl-D-tartarate] has a Ki of 45 nM.
`c1ccc2c(c1)C1C3CCc4sccc4C3(c3ccoc3)C2c2cccc[n+]21` (stereo not shown) [15(c), 6,11[[5',4']-4'-(3-furyl)-4',5',6',7'-tetrahydrothianaphthyl]6,11]-dihydrobenzo[b]quinolizinium hexafluorophosphate] gave a Ki of 1.4 nM.
With `c1ccc(C2(c3ccccc3)C3c4ccccc4C([n+]4ccccc43)C23CC3)cc1` (stereo not shown) [22(b), 6,11-ethano-12,12-diphenyl-13,13-spirocyclopropyl-6,11-dihydrobenzo[b]quinolizinium chloride] the Ki was 9.07 nM.
Compound `c1ccc(C2(c3ccccn3)CC3c4ccccc4C2c2cccc[n+]23)nc1` (stereo not shown) [24(b), 6,11-ethano-12,12-di-(2-pyridyl)-6,11-dihydrobenzo[b]quinolizinium chloride hydrate] has a Ki of 8.39 nM.
For `COc1cccc2c1C1c3cccc[n+]3C2CC1(c1ccccc1)c1ccccc1.[O-][Cl+3]([O-])([O-])[O-]` (stereo not shown) [25(c), 6,11-ethano-12,12-diphenyl-10-methoxy-6,11-dihydrobenzo[b]quinolizinium perchlorate], the Ki was 39.3 nM.
Work on `COc1ccc2c(c1)C1c3cccc[n+]3C2CC1(c1ccccc1)c1ccccc1` (stereo not shown) [27(E), 6,11-ethano-12,12-diphenyl-9-methoxy-6,111-dihydrobenzo[b]quinolizinium chloride 1/2 hydrate] yielded a Ki of 10.4 nM.

Same assay, conditions: inhibition of [3H]TCP binding at 10 μM
In the case of `Cc1ccc(S(=O)(=O)n2nccc2C2(c3ccoc3)CC3c4ccccc4C2c2cccc[n+]23)cc1.[Br-]` (single isomer, unassigned) [Example 184(d), 6,11-ethano-12-(3-furyl)-12-[1-(p-toluenesulfonyl)pyrazol-5-yl]-6,11-dihydrobenzo[b]quinolizinium bromide], the “[3H]TCP percent inhibition @ 10 μm” value is reported as 53%.
`Cc1ccc(S(=O)(=O)n2nccc2C2(c3ccoc3)CC3c4cccc(O)c4C2c2cccc[n+]23)cc1` (single isomer, unassigned) [Example 199(a), 6,11-ethano-12-(3-furyl)-12-[1-(p-toluenesulfon-yl)-pyrazol-5-yl]-10-hydroxy-6,11-dihydrobenzo[b]quinolizinium perchlorate] was tested, and the “[3H]TCP percent inhibition @ 10 μm” value was 27%.
In the case of `Brc1ccc(C2(c3ccc(Br)cc3)CC3c4ccccc4C2c2cccc[n+]23)cc1` (stereo not shown) [23(c), 6,11-ethano-12,12-di-p-bromophenyl-6,11-dihydrobenzo[b]quinolizinium chloride], the “[3H]TCP percent inhibition @ 10 μm” value is reported as 22%.
